Experimental data from ChEMBL document CHEMBL5352419, “Design, synthesis, and biological evaluation of tetrahydroquinoline amphiphiles as membrane-targeting antimicrobials against pathogenic bacteria and fungi” (Eur J Med Chem, 2022).
≈ marks a conversion by molar mass, not a printed value.

Key:
Candida albicans [1] = assay: Antimicrobial activity against Candida albicans ATCC10231 assessed as fungal growth inhibition incubated for 48 hrs by Sabouraud Dextrose broth based dilution assay; assay type: functional
Candida albicans [2] = assay: Antimicrobial activity against Candida albicans CMCC98001 assessed as fungal growth inhibition incubated for 48 hrs by Sabouraud Dextrose broth based dilution assay; assay type: functional
Staphylococcus aureus [3] = assay: Antimicrobial activity against Staphylococcus aureus ATCC29213 assessed as bacterial growth inhibition incubated for 24 hrs by Muller Hinton broth based dilution assay; assay type: functional
Staphylococcus aureus [4] = assay: Antimicrobial activity against methicillin-resistant Staphylococcus aureus N315 assessed as bacterial growth inhibition incubated for 24 hrs by Muller Hinton broth based dilution assay; assay type: functional
Staphylococcus aureus [5] = assay: Antimicrobial activity against methicillin-resistant Staphylococcus aureus NCTC10442 assessed as bacterial growth inhibition incubated for 24 hrs by Muller Hinton broth based dilution assay; assay type: functional
Escherichia coli = assay: Antimicrobial activity against Escherichia coli ATCC25922 assessed as bacterial growth inhibition incubated for 24 hrs by Muller Hinton broth based dilution assay; assay type: functional
[6] = Hemolytic activity in rabbit RBC incubated for 1 hr by absorbance based microplate reader assay; assay type: toxicity, cell-based, Oryctolagus cuniculus, Erythrocyte; details: rabbit red blood cells (erythrocytes)
Pseudomonas aeruginosa = assay: Antimicrobial activity against Pseudomonas aeruginosa ATCC9027 assessed as bacterial growth inhibition incubated for 24 hrs by Muller Hinton broth based dilution assay; assay type: functional
Acinetobacter baumannii [7] = assay: Antimicrobial activity against Acinetobacter baumannii ATCC17978 assessed as bacterial growth inhibition incubated for 24 hrs by Muller Hinton broth based dilution assay; assay type: functional
Acinetobacter baumannii [8] = assay: Antimicrobial activity against Acinetobacter baumannii R2889 assessed as bacterial growth inhibition incubated for 24 hrs by Muller Hinton broth based dilution assay; assay type: functional
Klebsiella pneumoniae [9] = assay: Antimicrobial activity against Klebsiella pneumoniae ATCC10031 assessed as bacterial growth inhibition incubated for 24 hrs by Muller Hinton broth based dilution assay; assay type: functional
Klebsiella pneumoniae [10] = assay: Antimicrobial activity against Klebsiella pneumoniae ATCC14581 assessed as bacterial growth inhibition incubated for 24 hrs by Muller Hinton broth based dilution assay; assay type: functional
Staphylococcus aureus [11] = assay: Induction of drug resistance in Staphylococcus aureus ATCC29213 assessed as fold increase in MIC at sub-inhibitory concentration incubated for 21 to 22 passages; assay type: functional

| Structure (SMILES) | MIC (Candida albicans [1]) [µg/mL] | MIC (Candida albicans [2]) [µg/mL] | MIC (Staphylococcus aureus [3]) [µg/mL] | MIC (Staphylococcus aureus [4]) [µg/mL] | MIC (Staphylococcus aureus [5]) [µg/mL] | MIC (Escherichia coli) [µg/mL] | HC50 at 1 h [6] [µg/mL] | MIC (Pseudomonas aeruginosa) [µg/mL] | MIC (Acinetobacter baumannii [7]) [µg/mL] | MIC (Acinetobacter baumannii [8]) [µg/mL] | MIC (Klebsiella pneumoniae [9]) [µg/mL] | MIC (Klebsiella pneumoniae [10]) [µg/mL] | fold change (FC) (Staphylococcus aureus [11]) |
| --- | --- | --- | --- | --- | --- | --- | --- | --- | --- | --- | --- | --- | --- |
| CCCCCCCN1CCCc2cc(OCC(=O)N[C@@H](CCCNC(=N)N)C(=O)OC)ccc21 | 25 (≈ 52.6 µM) | 12.5 (≈ 26.3 µM) | 3.12 (≈ 6.57 µM) | 1.56 (≈ 3.28 µM) | 1.56 (≈ 3.28 µM) | 12.5 (≈ 26.3 µM) | > 200 | 12.5 (≈ 26.3 µM) | 12.5 (≈ 26.3 µM) | 12.5 (≈ 26.3 µM) | 6.25 (≈ 13.1 µM) | 6.25 (≈ 13.1 µM) | – |
| O=C(O)c1cn(C2CC2)c2cc(N3CCNCC3)c(F)cc2c1=O [CIPROFLOXACIN] | – | – | 0.39 (≈ 1.18 µM) | 0.39 (≈ 1.18 µM) | 0.39 (≈ 1.18 µM) | 0.049 (≈ 0.148 µM) | – | 0.195 (≈ 0.589 µM) | 0.39 (≈ 1.18 µM) | 0.78 (≈ 2.35 µM) | 0.195 (≈ 0.589 µM) | 0.195 (≈ 0.589 µM) | – |
| CCCCCCCCCN1CCCc2cc(OCC(=O)N[C@@H](CCCNC(=N)N)C(=O)N[C@@H](CCCNC(=N)N)C(N)=O)ccc21 | > 50 | 50 (≈ 77.5 µM) | 3.12 (≈ 4.85 µM) | 3.12 (≈ 4.85 µM) | 3.12 (≈ 4.85 µM) | 25 (≈ 38.8 µM) | > 200 | 25 (≈ 38.8 µM) | 12.5 (≈ 19.4 µM) | 50 (≈ 77.5 µM) | 6.25 (≈ 9.69 µM) | 6.25 (≈ 9.69 µM) | – |
| CCn1cc(C(=O)O)c(=O)c2cc(F)c(N3CCNCC3)cc21 | – | – | – | – | – | – | – | – | – | – | – | – | 1024 |
| CCCCCCCCCN1CCCc2cc(OCC(=O)N[C@@H](CCCNC(=N)N)C(=O)OC)ccc21 | 3.12 (≈ 6.2 µM) | 3.12 (≈ 6.2 µM) | 3.12 (≈ 6.2 µM) | 1.56 (≈ 3.1 µM) | 1.56 (≈ 3.1 µM) | 6.25 (≈ 12.4 µM) | > 200 | 12.5 (≈ 24.8 µM) | 6.25 (≈ 12.4 µM) | 6.25 (≈ 12.4 µM) | 3.12 (≈ 6.2 µM) | 3.12 (≈ 6.2 µM) | – |
| CCCCCCCCCN1CCCc2cc(OCC(=O)OCC)ccc21 | > 50 | > 50 | > 50 | > 50 | > 50 | > 50 | > 200 | – | – | – | – | – | – |
| CCCCCCCCCN1CCCc2cc(OCC(=O)N[C@@H](CCCNC(=N)N)C(=O)N[C@@H](CCCNC(=N)N)C(=O)OC)ccc21 | > 50 | 50 (≈ 75.8 µM) | 1.56 (≈ 2.36 µM) | 1.56 (≈ 2.36 µM) | 1.56 (≈ 2.36 µM) | 3.12 (≈ 4.74 µM) | > 200 | 6.25 (≈ 9.47 µM) | 6.25 (≈ 9.47 µM) | 25 (≈ 37.9 µM) | 3.12 (≈ 4.74 µM) | 3.12 (≈ 4.74 µM) | – |
| CCCCN1CCCc2cc(OCCCCBr)ccc21 | > 50 | 50 (≈ 147 µM) | 12.5 (≈ 36.7 µM) | 6.25 (≈ 18.4 µM) | 6.25 (≈ 18.4 µM) | 50 (≈ 147 µM) | > 200 | – | – | – | – | – | – |
| CC(C)=CCN1CCCc2cc(OCCCCCCCCCCCCNC(=N)N)ccc21 | 0.78 (≈ 1.76 µM) | 0.78 (≈ 1.76 µM) | 1.56 (≈ 3.52 µM) | 0.78 (≈ 1.76 µM) | 0.78 (≈ 1.76 µM) | 12.5 (≈ 28.2 µM) | > 200 | 50 (≈ 113 µM) | 12.5 (≈ 28.2 µM) | 12.5 (≈ 28.2 µM) | 3.12 (≈ 7.06 µM) | 3.12 (≈ 7.06 µM) | – |
| CCCNCCCCOc1ccc2c(c1)CCCN2CC=C(C)C | > 50 | > 50 | 50 (≈ 151 µM) | 25 (≈ 75.6 µM) | 25 (≈ 75.6 µM) | > 50 | > 200 | – | – | – | – | – | – |
